Results published in US8658616B2, “Nucleoside aryl phosphoramidates and their use as anti-viral agents for the treatment of hepatitis C virus” (University College Cardiff Consultants Limited, priority 2006, dated 2014).
Where “and” joins values, the source holds several entries; their conditions need not be identical. Equal entries are not always repeated. Where two headings read alike, the source gives them in different places.

Columns and labels:
[1] = CC50 (cytotoxicity, Table I); assay type: cell-based; conditions: human, Huh 7 cells; method and cell line not described
[2] = system: Huh 7 cells; experiment: CC50 (cytotoxicity, Table I); assay type: cell-based; conditions: method and cell line not described
[3] = system: subgenomic HCV replicons I389luc-ubi-neo/NS3-3′/5.1 (Huh 5-2); experiment: Anti-HCV assay in Huh 5-2 cells (luciferase replicon); assay type: cell-based, hepatitis C virus (HCV); conditions: for potency with respect to HCV compared with compound CHC5 (free nucleoside): comparison of Table I data
From the text: (§1) Anti-HCV assay in Huh 7 cells. Huh 7 cells containing subgenomic HCV replicons I389luc-ubi-neo/NS3-3′/5.1 (Huh 5-2) or I377/NS3-3′/wt (Huh 9-13) have been described (Lohmann V, Korner F, Koch J, Herian U, Theilmann L, Bartenschlager R. (1999) Replication of subgenomic hepatitis C virus RNAs in a hepatoma cell line. Science 285:110-113. Lohmann V, Korner F, Dobierzewska A, Bartenschlager R. (2001) Mutations in hepatitis C virus RNAs conferring cell culture adaptation. J Virol. 75:1437-1449.). Cells were grown in Dulbecco's modified Eagle's Medium (DMEM; Gibco, Merelbeke, Belgium) supplemented with 10% heat-inactivated fetal bovine serum (FCS) (Integro, Zaandam, The Netherlands), 1× non-essential amino acids (Gibco), 100 IU/ml penicillin (Gibco), 100 μg/ml streptomycin (Gibco) and 250 μg/ml Geneticin (G418, Gibco) for Huh 5-2 cells, 1000 μg/ml G418 for Huh 9-13 cells
Anti-HCV Assay in Huh 5-2 Cells.
Huh 5-2 cells were seeded at a density of 5×10^3 per well in a tissue culture treated white 96-well view plate (Packard, Canberra, Canada) in complete DMEM supplemented with 250 μg/ml G418. Following incubation for 24 h at 37° C. (5% CO2) medium was removed and serial dilutions in complete DMEM (without G418) of the test compounds were added in a total volume of 100 μl. After 4 days of incubation at 37° C., cell culture medium was removed and luciferase activity was determined using the Steady-Glo luciferase assay system (Promega, Leiden, The Netherlands); the luciferase signal was measured using a Luminoskan Ascent (Thermo, Vantaa, Finland). The 50% effective concentration (EC50) was defined as the concentration of compound that reduced the luciferase signal by 50%.

[4] = system: subgenomic HCV replicons I377/NS3-3′/wt (Huh 9-13); experiment: Anti-HCV assay in Huh 9-13 cells (RT-qPCR of replicon RNA); assay type: cell-based, hepatitis C virus (HCV); conditions: read-out: HCV Huh 9-13 EC50
From the text: as §1
Anti-HCV Assay in Huh 9-13 Cells.
Huh 9-13 cells were seeded at a density of 5×10^3 cells per well in 96-well cell culture plates in complete DMEM supplemented with 1000 μg/ml G418. Following incubation for 24 h at 37° C. cell culture medium was removed and serial dilutions of the test compounds in complete DMEM without G418 were added in a total volume of 100 μl. After 4 days of incubation at 37° C., cell culture fluid was removed and monolayers were washed once with phosphate-buffered saline. Cells were lysed in 350 μl RLT buffer (Qiagen, Venlo, The Netherlands) according to the Manufacturer's instruction. Lysates were stored at −80° C. until further use. […]

[5] = Huh 5-2 cells, 4 days incubation, concentration that reduced the luciferase signal by 50%, read-out: HCV Huh 5-2 EC50
[6] = Hepatitis C virus, Huh-5-2, 96 h, read-out: HCV Huh 5-2 EC50, Huh 5-2 cells, 4 days incubation, concentration that reduced the luciferase signal by 50%

Work on CC1(O)C(O)[C@@H](CO)O[C@H]1n1cnc2c(N)ncnc21 (stereo partly drawn) [CHC1, β-2′-methyl-adenosine, reference compound] yielded a CC50 [1] of 29 µM, a CC50 [2] of over 33 µM and an EC50 ([3]; Hepatitis C virus, Huh-5-2, 96 h, Huh 5-2 cells, 4 days incubation, concentration that reduced the luciferase signal by 50%, read-out: HCV Huh 5-2 EC50) of 0.14 µM. For the same molecule, the EC50 [3, 5] was 0.08 µM and 0.13 µM.
Molecule CCOC(=O)[C@H](C)NP(=O)(OC[C@H]1O[C@@H](n2cnc3c(N)ncnc32)C(C)(O)C1O)Oc1cccc2ccccc12 (stereo partly drawn) [CHC2, β-2′-methyl-adenosine 5′-O-[α-naphthyl(ethoxy-L-alaninyl)]phosphate] has a CC50 [1] of over 50 µM and an EC50 [3, 6] of 0.12 µM.
For C[C@H](NP(=O)(OC[C@H]1O[C@@H](n2cnc3c(N)ncnc32)C(C)(O)C1O)Oc1cccc2ccccc12)C(=O)OCc1ccccc1 (stereo partly drawn) [CHC3, β-2′-methyl-adenosine 5′-O-[α-naphthyl(benzoxy-L-alaninyl)]phosphate], the CC50 [1] was 44 µM and the EC50 [3, 6] was 0.16 µM.
Molecule C[C@H](NP(=O)(OC[C@H]1O[C@@H](n2cnc3c(N)ncnc32)C(C)(O)C1O)Oc1cccc2ccccc12)C(=O)OC(C)(C)C (stereo partly drawn) [CHC4, β-2′-methyl-adenosine 5′-O-[α-naphthyl(tert-butoxy-L-alaninyl)]phosphate] has a CC50 [1] of over 50 µM and an EC50 [3, 6] of 2.36 µM.
For C[C@@]1(O)[C@H](O)[C@@H](CO)O[C@H]1n1cnc2c(=O)[nH]c(N)nc21 [CHC5, β-2′-methyl-guanosine, reference compound], the CC50 [2] was over 50 µM, the EC50 ([4]; Huh 9-13 cells, 4 days incubation, concentration that reduced replicon RNA content by 50% (RT-qPCR)) was 1.5 µM and the EC50 [3, 5] was 3 µM and 5 µM.
With C[C@H](NP(=O)(OC[C@H]1O[C@@H](n2cnc3c(=O)[nH]c(N)nc32)C(C)(O)C1O)Oc1cccc2ccccc12)C(=O)OCc1ccccc1 (stereo partly drawn) [CHC6, β-2′-methyl-guanosine 5′-O-[α-naphthyl(benzoxy-L-alaninyl)]phosphate] the CC50 [1] was over 50 µM, the EC50 ([4]; Hepatitis C virus, 96 h) was 0.06 µM and the “potency with respect to HCV compared with compound CHC5 (free nucleoside)” value [3] was “greater potency”.
With CCOC(=O)[C@H](C)NP(=O)(OC[C@H]1O[C@@H](n2cnc3c(=O)[nH]c(N)nc32)C(C)(O)C1O)Oc1cccc2ccccc12 (stereo partly drawn) [CHC7, β-2′-methyl-guanosine 5′-O-[α-naphthyl(ethoxy-L-alaninyl)]phosphate] the CC50 [1] was over 50 µM, the EC50 [3, 6] was 0.15 µM and the “potency with respect to HCV compared with compound CHC5 (free nucleoside)” value [3] was “greater potency”. For the same molecule, the EC50 ([3]; read-out: HCV Huh 5-2 EC50, Huh 5-2 cells, 4 days incubation, concentration that reduced the luciferase signal by 50%) was 0.2 µM and 0.16 µM.
Work on C[C@H](NP(=O)(OC[C@H]1O[C@@H](n2cnc3c(=O)[nH]c(N)nc32)C(C)(O)C1O)Oc1cccc2ccccc12)C(=O)OC(C)(C)C (stereo partly drawn) [CHC8, β-2′-methyl-guanosine 5′-O-[α-naphthyl(tert-butoxy-L-alaninyl)]phosphate] yielded a CC50 [1] of over 50 µM and an EC50 [3, 6] of over 50 µM.
With C[C@H](NP(=O)(OC[C@H]1O[C@@H](n2cnc3c(=O)[nH]c(N)nc32)C(C)(O)C1O)Oc1ccccc1)C(=O)OCc1ccccc1 (stereo partly drawn) [CHC9, β-2′-methyl-guanosine 5′-O-[phenyl(benzoxy-L-alaninyl)]phosphate] the CC50 [1] was over 50 µM, the EC50 ([4]; Hepatitis C virus, 96 h) was 4.1 µM and the EC50 [3, 6] was 36 µM.
